Where a SMILES comes first, the peptide text is derived from it. [ ]: non-standard residue; d: D form. pGlu = O=C1CC[CH](C(=O)O)N1
Test system: STZ-induced hyperglycemic rats
Test: Effect on STZ-induced hyperglycemia in rats (blood glucose level)
Format: in vivo, rat
Method: Male Sprague-Dawley rats (S.D. 180 g) were used in the experiments described below. The animals lived in individual metabolism cages with free access to food and water, while food and body weight were monitored daily. Peripheral blood samples (approximately 10 μl) were obtained from the tail vein of the animals. The blood glucose levels were measured by using Accu-Check Blood Glucose Meter (Roche Diagnosetics Corporation, IN). Beta cell function was evaluated once every two days over a 2-week period by an individual unaware of the treatment group. Animals were evaluated separately for blood glucose level, food intake and body weight. The endpoint check was pancreatic insulin content and pancreatic beta cell number.
Streptozotocin (STZ) was used to chemically induce damage in pancreatic function in order to create a hyperglycemic state in the animals. Eight-week old male Sprague-Dawley rats (200.00 g±10 g) were injected with STZ by intraperitoneal (i.p.) (65 mg/kg body weight (BW)) to create hyperglycemic animals (24 to 48 hours). Blood glucose levels were monitored daily. Onset of hyperglycemia occurred usually about 24 to 48 hours after STZ administration.
[…] the seventh day or on the third day after STZ administration, which allowed for examination of the TRH/TRH analog treatment and the degree of pancreatic damage in the diabetic animal. Again, food intake, body weight and blood glucose levels of each of the animals were monitored. When hyperglycemia was determined to be reversed by TRH/TRH analog, the animal was sacrificed. Blood samples were collected for insulin assay and the pancreas and muscles were collected for further pathological and physiological tests.
The figures shown in the tables are blood glucose levels (mg/dL; i.e., milligrams of glucose per deciliter of blood).

[1] = Table 1, rats, STZ + compound i.p., Day 1
[2] = Table 1, rats, STZ + compound i.p., Day 2
[3] = Table 1, rats, STZ + compound i.p., Day 4
[4] = Table 1, rats, STZ + compound i.p., Day 9
[5] = Table 1, rats, STZ + compound i.p., Day 15
[6] = Table 1, rats, STZ + compound i.p., Day 22
[7] = Table 1, rats, STZ + compound i.p., Day 29
[8] = Table 1, rats, STZ + compound i.p., Day 39
[9] = Table 1, rats, STZ + compound i.p., Day 43
[10] = Table 1, rats, STZ + compound i.p., Day 50
[11] = Table 1, rats, STZ + compound i.p., Day 53
[12] = Table 1, rats, STZ + compound i.p., Day 56
[13] = Table 1, rats, STZ + compound i.p., Day 60
[14] = Table 1, rats, STZ + compound i.p., Day 64

NC(=O)CNC(=O)C1CCCN1C(=O)C(Cc1c[nH]cn1)NC(=O)C1CCC(=O)N1 (stereo not drawn) [Glp, Glp-His-Pro-Gly-NH2] ([pGlu]HPG-NH2; configuration not given here) showed a blood glucose level [1] of 103.8 mg/dL, a blood glucose level [2] of 396 mg/dL and a blood glucose level [3] of 446 mg/dL. The blood glucose level [4] was 275 mg/dL, the blood glucose level [5] was 348 mg/dL and the blood glucose level [6] was 419 mg/dL. The blood glucose level [7] was 431 mg/dL, the blood glucose level [8] was 448 mg/dL and the blood glucose level [9] was 423 mg/dL. It also gave a blood glucose level [10] of 416 mg/dL, a blood glucose level [11] of 432 mg/dL and a blood glucose level [12] of 400 mg/dL. For the same molecule, the blood glucose level [13] was 468 mg/dL and the blood glucose level [14] was 421 mg/dL.
In the case of NC(=O)C1CCCN1C(=O)C(Cc1c[nH]cn1)NC(=O)C(N)CCC(=O)O (centres unmarked) [GluT, 4-Amino-4-[2-(2-carbamoyl-pyrrolidin-1-yl)-1-(1H-imidazol-4-ylmethyl)-2-oxo-ethylcarbamoyl]-butyric acid], the blood glucose level (Tables 2-3, rats, STZ + compound 5 µg/kg, Day 1) is reported as 94 mg/dL, the blood glucose level (Tables 2-3, rats, STZ + compound 5 µg/kg, Day 4) is reported as 98 mg/dL and the blood glucose level (Tables 2-3, rats, STZ + compound 5 µg/kg, Day 7) is reported as 466 mg/dL. It also gave a blood glucose level (Tables 2-3, rats, STZ + compound 5 µg/kg, Day 11) of 457 mg/dL, a blood glucose level (Tables 2-3, rats, STZ + compound 5 µg/kg, Day 15) of 186 mg/dL and a blood glucose level (Tables 2-3, rats, STZ + compound 5 µg/kg, Day 18) of 215 mg/dL. The blood glucose level (Tables 2-3, rats, STZ + compound 5 µg/kg, Day 21) was 213 mg/dL, the blood glucose level (Tables 2-3, rats, STZ + compound 5 µg/kg, Day 25) was 173 mg/dL and the blood glucose level (Tables 2-3, rats, STZ + compound 5 µg/kg, Day 28) was 369 mg/dL. For the same molecule, the blood glucose level (Tables 2-3, rats, STZ + compound 5 µg/kg, Day 32) was 342 mg/dL, the blood glucose level (Tables 2-3, rats, STZ + compound 5 µg/kg, Day 35) was 336 mg/dL and the blood glucose level (Tables 2-3, rats, STZ + compound 5 µg/kg, Day 39) was 376 mg/dL. The blood glucose level (Tables 2-3, rats, STZ + compound 5 µg/kg, Day 42) was 390 mg/dL, the blood glucose level (Tables 2-3, rats, STZ + compound 5 µg/kg, Day 46) was 317 mg/dL and the blood glucose level (Tables 2-3, rats, STZ + compound 5 µg/kg, Day 54) was 260 mg/dL. For the same molecule, the blood glucose level (Tables 2-3, rats, STZ + compound 5 µg/kg, Day 61) was 324 mg/dL, the blood glucose level (Tables 2-3, rats, STZ + compound 10 µg/kg, Day 1) was 103 mg/dL and the blood glucose level (Tables 2-3, rats, STZ + compound 10 µg/kg, Day 4) was 99 mg/dL. It also gave a blood glucose level (Tables 2-3, rats, STZ + compound 10 µg/kg, Day 7) of 415 mg/dL, a blood glucose level (Tables 2-3, rats, STZ + compound 10 µg/kg, Day 11) of 477 mg/dL and a blood glucose level (Tables 2-3, rats, STZ + compound 10 µg/kg, Day 15) of 117 mg/dL. For the same molecule, the blood glucose level (Tables 2-3, rats, STZ + compound 10 µg/kg, Day 18) was 125 mg/dL, the blood glucose level (Tables 2-3, rats, STZ + compound 10 µg/kg, Day 21) was 103 mg/dL and the blood glucose level (Tables 2-3, rats, STZ + compound 10 µg/kg, Day 25) was 102 mg/dL. For the same molecule, the blood glucose level (Tables 2-3, rats, STZ + compound 10 µg/kg, Day 28) was 429 mg/dL, the blood glucose level (Tables 2-3, rats, STZ + compound 10 µg/kg, Day 32) was 111 mg/dL and the blood glucose level (Tables 2-3, rats, STZ + compound 10 µg/kg, Day 35) was 128 mg/dL. It also gave a blood glucose level (Tables 2-3, rats, STZ + compound 10 µg/kg, Day 39) of 252 mg/dL, a blood glucose level (Tables 2-3, rats, STZ + compound 10 µg/kg, Day 42) of 224 mg/dL and a blood glucose level (Tables 2-3, rats, STZ + compound 10 µg/kg, Day 46) of 289 mg/dL. It also gave a blood glucose level (Tables 2-3, rats, STZ + compound 10 µg/kg, Day 54) of 255 mg/dL, a blood glucose level (Tables 2-3, rats, STZ + compound 10 µg/kg, Day 61) of 218 mg/dL and a blood glucose level (Tables 2-3, rats, STZ + compound 20 µg/kg, Day 1) of 103 mg/dL. It also gave a blood glucose level (Tables 2-3, rats, STZ + compound 20 µg/kg, Day 4) of 98 mg/dL, a blood glucose level (Tables 2-3, rats, STZ + compound 20 µg/kg, Day 7) of 461 mg/dL and a blood glucose level (Tables 2-3, rats, STZ + compound 20 µg/kg, Day 11) of 502 mg/dL. For the same molecule, the blood glucose level (Tables 2-3, rats, STZ + compound 20 µg/kg, Day 15) was 266 mg/dL, the blood glucose level (Tables 2-3, rats, STZ + compound 20 µg/kg, Day 18) was 263 mg/dL and the blood glucose level (Tables 2-3, rats, STZ + compound 20 µg/kg, Day 21) was 382 mg/dL. It also gave a blood glucose level (Tables 2-3, rats, STZ + compound 20 µg/kg, Day 25) of 345 mg/dL, a blood glucose level (Tables 2-3, rats, STZ + compound 20 µg/kg, Day 28) of 496 mg/dL and a blood glucose level (Tables 2-3, rats, STZ + compound 20 µg/kg, Day 32) of 468 mg/dL. The blood glucose level (Tables 2-3, rats, STZ + compound 20 µg/kg, Day 35) was 485 mg/dL, the blood glucose level (Tables 2-3, rats, STZ + compound 20 µg/kg, Day 39) was 477 mg/dL and the blood glucose level (Tables 2-3, rats, STZ + compound 20 µg/kg, Day 42) was 457 mg/dL. The blood glucose level (Tables 2-3, rats, STZ + compound 20 µg/kg, Day 46) was 487 mg/dL, the blood glucose level (Tables 2-3, rats, STZ + compound 20 µg/kg, Day 54) was 389 mg/dL and the blood glucose level (Tables 2-3, rats, STZ + compound 20 µg/kg, Day 61) was 452 mg/dL. It also gave a blood glucose level (Tables 2-3, rats, STZ + compound 40 µg/kg, Day 1) of 105 mg/dL, a blood glucose level (Tables 2-3, rats, STZ + compound 40 µg/kg, Day 4) of 99 mg/dL and a blood glucose level (Tables 2-3, rats, STZ + compound 40 µg/kg, Day 7) of 548 mg/dL. For the same molecule, the blood glucose level (Tables 2-3, rats, STZ + compound 40 µg/kg, Day 11) was 568 mg/dL, the blood glucose level (Tables 2-3, rats, STZ + compound 40 µg/kg, Day 15) was 327 mg/dL and the blood glucose level (Tables 2-3, rats, STZ + compound 40 µg/kg, Day 18) was 405 mg/dL. The blood glucose level (Tables 2-3, rats, STZ + compound 40 µg/kg, Day 21) was 472 mg/dL, the blood glucose level (Tables 2-3, rats, STZ + compound 40 µg/kg, Day 25) was 455 mg/dL and the blood glucose level (Tables 2-3, rats, STZ + compound 40 µg/kg, Day 28) was 514 mg/dL. The blood glucose level (Tables 2-3, rats, STZ + compound 40 µg/kg, Day 32) was 543 mg/dL, the blood glucose level (Tables 2-3, rats, STZ + compound 40 µg/kg, Day 35) was 507 mg/dL and the blood glucose level (Tables 2-3, rats, STZ + compound 40 µg/kg, Day 39) was 589 mg/dL. The blood glucose level (Tables 2-3, rats, STZ + compound 40 µg/kg, Day 42) was 592 mg/dL, the blood glucose level (Tables 2-3, rats, STZ + compound 40 µg/kg, Day 46) was 609 mg/dL and the blood glucose level (Tables 2-3, rats, STZ + compound 40 µg/kg, Day 54) was 531 mg/dL. For the same molecule, the blood glucose level (Tables 2-3, rats, STZ + compound 40 µg/kg, Day 61) was 413 mg/dL.
For NC(=O)C1CCCN1C(=O)C(Cc1ccccc1)NC(=O)C1CCC(=O)N1 (stereo not drawn) [PheT, 1-{3-phenyl-2-[(5-oxo-pyrrolidine-2-carbonyl)-amino]-propionyl}-pyrrolidine-2-carboxylic acid amide] ([pGlu]-Phe-Pro-NH2; configuration not given here), the blood glucose level [1] was 105.8 mg/dL, the blood glucose level [2] was 316.8 mg/dL and the blood glucose level [3] was 419.8 mg/dL. The blood glucose level [4] was 130.8 mg/dL, the blood glucose level [5] was 234.4 mg/dL and the blood glucose level [6] was 359.2 mg/dL. The blood glucose level [7] was 407.2 mg/dL, the blood glucose level [8] was 434.8 mg/dL and the blood glucose level [9] was 432 mg/dL. The blood glucose level [10] was 478 mg/dL, the blood glucose level [11] was 424 mg/dL and the blood glucose level [12] was 355 mg/dL. The blood glucose level [13] was 381 mg/dL and the blood glucose level [14] was 414 mg/dL.
